# In ChEMBL document CHEMBL5375986, “Discovery of Lead 2-Thiazolylhydrazones with Broad-Spectrum and Potent Antifungal Activity” (J Med Chem, 2023):
# Experiments:
# [1] = Efflux ratio of apparent permeability across basolateral to apical over apical to basolateral side in human Caco-2 cells measured after 30 to 180 mins by HPLC-MS analysis; format: ADME, cell-based; conditions: time 30-180 min
# [2] = Apparent permeability across apical to basolateral side in human Caco-2 cells measured after 30 to 180 mins by HPLC-MS analysis; format: ADME, cell-based; conditions: time 30-180 min
# Candida tropicalis = experiment: Antifungal activity against Candida tropicalis ATCC 750 assessed as inhibition of fungal growth incubated for 24 to 48 hrs by CLSI protocol based broth microdilution method; format: functional; conditions: time 24-48 hrs
# Nakaseomyces glabratus = experiment: Antifungal activity against Candida glabrata ATCC 2001 assessed as inhibition of fungal growth incubated for 24 to 48 hrs by CLSI protocol based broth microdilution method; format: functional; conditions: time 24-48 hrs
# [3] = Apparent permeability across basolateral to apical side in human Caco-2 cells measured after 30 to 180 mins by HPLC-MS analysis; format: ADME, cell-based; conditions: time 30-180 min
# [4] = Antifungal activity against Cryptococcus gattii ATCC 24065 assessed as inhibition of fungal growth incubated for 24 to 48 hrs by CLSI protocol based broth microdilution method; format: functional, Cryptococcus gattii VGI; conditions: time 24-48 hrs
# Pichia kudriavzevii = experiment: Antifungal activity against Candida krusei ATCC 20298 assessed as inhibition of fungal growth incubated for 24 to 48 hrs by CLSI protocol based broth microdilution method; format: functional; conditions: time 24-48 hrs
# [5] = Cytotoxicity against human PBMC cells assessed as inhibition of cell growth incubated for 24 to 48 hrs by MTT assay; format: toxicity, cell-based
# Caco-2 = experiment: Cytotoxicity against human Caco-2 cells assessed as reduction in cell viability at 10 to 40 microg/ml measured upto 12 hrs by MTT assay; format: functional; conditions: dose 10-40 µg/ml, at 10 to 40 µg/mL
# [Candida] auris = Antifungal activity against Candida auris COLO 01 assessed as inhibition of fungal growth incubated for 24 to 48 hrs by CLSI protocol based broth microdilution method; format: functional; conditions: Candidozyma auris, time 24-48 hrs
# Candida parapsilosis = experiment: Antifungal activity against Candida parapsilosis ATCC 22019 assessed as inhibition of fungal growth incubated for 24 to 48 hrs by CLSI protocol based broth microdilution method; format: functional; conditions: Lodderomyces parapsilosis, time 24-48 hrs
# Candida albicans = experiment: Antifungal activity against Candida albicans SC5314 assessed as inhibition of fungal growth incubated for 24 to 48 hrs by CLSI protocol based broth microdilution method; format: functional; conditions: time 24-48 hrs
# Cryptococcus neoformans [6] = experiment: Antifungal activity against Cryptococcus neoformans ATCC 24067 assessed as inhibition of fungal growth incubated for 24 to 48 hrs by CLSI based broth microdilution method; format: functional; conditions: time 24-48 hrs
# Cryptococcus neoformans [7] = experiment: Antifungal activity against Cryptococcus neoformans H99 infected in Tenebrio molitor larvae assessed as survival rate of larvae at 80 microg/ml measured after 24 hrs; format: functional
compound,measurement,setting,value
CCOC(=O)Cc1csc(N/N=C(\C)CCC(=O)O)n1,efflux ratio,[1],3.58
same,Papp A→B,[2],1.47 ×10⁻⁶ cm/s
same,MIC,Candida tropicalis,0.8 µM
same,MIC,Nakaseomyces glabratus,52.2 µM
same,Papp B→A,[3],5.26 ×10⁻⁶ cm/s
same,MIC,[4],3.2 µM
same,MIC,Pichia kudriavzevii,0.8 µM
same,IC50,[5],> 500 µM
same,Activity,Caco-2,>70%
same,MIC,[Candida] auris,1.6 µM
same,MIC,Candida parapsilosis,1.6 µM
same,MIC,Candida albicans,3.2 µM
same,MIC,Cryptococcus neoformans [6],3.2 µM
same,survival at 80 µg/mL,Cryptococcus neoformans [7],63%
